Laboratory results reported in PubChem BioAssay (NCI).
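These data come from cells grown in 96-well plates and exposed to compound for 48 hours at five concentrations. The concentration for full growth arrest is given as TGI.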

Assays:
Test in all cases: growth of human tumour cells (NCI), 48 h
786-0 renal = test system: 786-0 renal
A498 renal = test system: A498 renal
A549 NSCLC = test system: A549 NSCLC
CAKI-1 renal = test system: CAKI-1 renal
CCRF-CEM leukemia = test system: CCRF-CEM leukemia
DLD-1 colon = test system: DLD-1 colon
DMS 114 small cell lung = test system: DMS 114 small cell lung
DMS 273 small cell lung = test system: DMS 273 small cell lung
EKVX NSCLC = test system: EKVX NSCLC
HCT-116 colon = test system: HCT-116 colon
HCT-15 colon = test system: HCT-15 colon
HL-60(TB) leukemia = test system: HL-60(TB) leukemia
HOP-18 NSCLC = test system: HOP-18 NSCLC
HOP-62 NSCLC = test system: HOP-62 NSCLC
HOP-92 NSCLC = test system: HOP-92 NSCLC
HT29 colon = test system: HT29 colon
IGROV1 ovarian = test system: IGROV1 ovarian
K-562 leukemia = test system: K-562 leukemia
KM12 colon = test system: KM12 colon
KM20L2 colon = test system: KM20L2 colon
LOX IMVI melanoma = test system: LOX IMVI melanoma
LXFL 529 NSCLC = test system: LXFL 529 NSCLC
M14 melanoma = test system: M14 melanoma
M19-MEL melanoma = test system: M19-MEL melanoma
MALME-3M melanoma = test system: MALME-3M melanoma
MOLT-4 leukemia = test system: MOLT-4 leukemia
NCI-H23 lung = test system: NCI-H23 lung
NCI-H460 lung = test system: NCI-H460 lung
NCI-H522 lung = test system: NCI-H522 lung
OVCAR-3 ovarian = test system: OVCAR-3 ovarian
OVCAR-5 ovarian = test system: OVCAR-5 ovarian
OVCAR-8 ovarian = test system: OVCAR-8 ovarian
RPMI-8226 leukemia = test system: RPMI-8226 leukemia
RXF 393 renal = test system: RXF 393 renal
SF-268 CNS = test system: SF-268 CNS
SF-295 CNS = test system: SF-295 CNS
SF-539 CNS = test system: SF-539 CNS
SK-MEL-2 melanoma = test system: SK-MEL-2 melanoma
SK-MEL-28 melanoma = test system: SK-MEL-28 melanoma
SK-MEL-5 melanoma = test system: SK-MEL-5 melanoma
SK-OV-3 ovarian = test system: SK-OV-3 ovarian
SNB-19 CNS = test system: SNB-19 CNS
SNB-78 CNS = test system: SNB-78 CNS
SR leukemia = test system: SR leukemia
SW-620 colon = test system: SW-620 colon
TK-10 renal = test system: TK-10 renal
U251 CNS = test system: U251 CNS
UACC-257 melanoma = test system: UACC-257 melanoma
UACC-62 melanoma = test system: UACC-62 melanoma
UO-31 renal = test system: UO-31 renal
XF 498 CNS = test system: XF 498 CNS
ACHN renal = test system: ACHN renal
COLO 205 colon = test system: COLO 205 colon
HCC-2998 colon = test system: HCC-2998 colon
NCI-H226 lung = test system: NCI-H226 lung
OVCAR-4 ovarian = test system: OVCAR-4 ovarian
SN12C renal = test system: SN12C renal
SNB-75 CNS = test system: SNB-75 CNS

CC(C)(Oc1ccc(C(=O)c2ccc(Cl)cc2)cc1Cl)C(=O)Nc1c(Cl)cccc1Cl
TGI (786-0 renal): > 100 µM
TGI (A498 renal): > 100 µM
TGI (A549 NSCLC): > 100 µM
TGI (CAKI-1 renal): > 100 µM
TGI (CCRF-CEM leukemia): > 100 µM
TGI (DLD-1 colon): > 100 µM
TGI (DMS 114 small cell lung): > 100 µM
TGI (DMS 273 small cell lung): > 100 µM
TGI (EKVX NSCLC): > 100 µM
TGI (HCT-116 colon): > 100 µM
TGI (HCT-15 colon): > 100 µM
TGI (HL-60(TB) leukemia): > 100 µM
TGI (HOP-18 NSCLC): > 100 µM
TGI (HOP-62 NSCLC): > 100 µM
TGI (HOP-92 NSCLC): > 100 µM
TGI (HT29 colon): > 100 µM
TGI (IGROV1 ovarian): > 100 µM
TGI (K-562 leukemia): > 100 µM
TGI (KM12 colon): > 100 µM
TGI (KM20L2 colon): > 100 µM
TGI (LOX IMVI melanoma): > 100 µM
TGI (LXFL 529 NSCLC): > 100 µM
TGI (M14 melanoma): > 100 µM
TGI (M19-MEL melanoma): > 100 µM
TGI (MALME-3M melanoma): > 100 µM
TGI (MOLT-4 leukemia): > 100 µM
TGI (NCI-H23 lung): > 100 µM
TGI (NCI-H460 lung): > 100 µM
TGI (NCI-H522 lung): > 100 µM
TGI (OVCAR-3 ovarian): > 100 µM
TGI (OVCAR-5 ovarian): > 100 µM
TGI (OVCAR-8 ovarian): > 100 µM
TGI (RPMI-8226 leukemia): > 100 µM
TGI (RXF 393 renal): > 100 µM
TGI (SF-268 CNS): > 100 µM
TGI (SF-295 CNS): > 100 µM
TGI (SF-539 CNS): > 100 µM
TGI (SK-MEL-2 melanoma): > 100 µM
TGI (SK-MEL-28 melanoma): > 100 µM
TGI (SK-MEL-5 melanoma): > 100 µM
TGI (SK-OV-3 ovarian): > 100 µM
TGI (SNB-19 CNS): > 100 µM
TGI (SNB-78 CNS): > 100 µM
TGI (SR leukemia): > 100 µM
TGI (SW-620 colon): > 100 µM
TGI (TK-10 renal): > 100 µM
TGI (U251 CNS): > 100 µM
TGI (UACC-257 melanoma): > 100 µM
TGI (UACC-62 melanoma): > 100 µM
TGI (UO-31 renal): > 100 µM
TGI (XF 498 CNS): > 100 µM

CCC(C)NC1=C(NC(C)=O)C(=O)c2ccccc2C1=O (centres undefined)
TGI (786-0 renal): > 7.5 µM
TGI (A498 renal): > 75 µM
TGI (A549 NSCLC): > 75 µM
TGI (ACHN renal): > 75 µM
TGI (CAKI-1 renal): > 75 µM
TGI (CCRF-CEM leukemia): > 75 µM
TGI (COLO 205 colon): > 75 µM
TGI (DLD-1 colon): > 75 µM
TGI (DMS 114 small cell lung): > 75 µM
TGI (DMS 273 small cell lung): > 75 µM
TGI (EKVX NSCLC): > 75 µM
TGI (HCC-2998 colon): > 75 µM
TGI (HCT-116 colon): > 75 µM
TGI (HCT-15 colon): > 75 µM
TGI (HL-60(TB) leukemia): 43.1 µM
TGI (HOP-18 NSCLC): > 75 µM
TGI (HOP-62 NSCLC): > 75 µM
TGI (HOP-92 NSCLC): > 75 µM
TGI (HT29 colon): > 75 µM
TGI (IGROV1 ovarian): > 75 µM
TGI (K-562 leukemia): > 75 µM
TGI (KM12 colon): > 75 µM
TGI (KM20L2 colon): > 75 µM
TGI (LOX IMVI melanoma): 40 µM
TGI (LXFL 529 NSCLC): > 75 µM
TGI (M14 melanoma): > 75 µM
TGI (M19-MEL melanoma): > 75 µM
TGI (MALME-3M melanoma): > 75 µM
TGI (MOLT-4 leukemia): > 75 µM
TGI (NCI-H226 lung): > 75 µM
TGI (NCI-H23 lung): > 75 µM
TGI (NCI-H460 lung): > 75 µM
TGI (OVCAR-3 ovarian): > 75 µM
TGI (OVCAR-4 ovarian): > 75 µM
TGI (OVCAR-5 ovarian): > 75 µM
TGI (OVCAR-8 ovarian): > 75 µM
TGI (RPMI-8226 leukemia): 37.9 µM
TGI (RXF 393 renal): > 75 µM
TGI (SF-268 CNS): > 75 µM
TGI (SF-295 CNS): > 75 µM
TGI (SF-539 CNS): > 75 µM
TGI (SK-MEL-2 melanoma): > 75 µM
TGI (SK-MEL-28 melanoma): > 75 µM
TGI (SK-MEL-5 melanoma): > 75 µM
TGI (SK-OV-3 ovarian): > 75 µM
TGI (SN12C renal): > 75 µM
TGI (SNB-19 CNS): > 75 µM
TGI (SNB-75 CNS): > 75 µM
TGI (SNB-78 CNS): > 75 µM
TGI (SW-620 colon): > 75 µM
TGI (TK-10 renal): > 75 µM
TGI (U251 CNS): > 75 µM
TGI (UACC-257 melanoma): > 75 µM
TGI (UACC-62 melanoma): > 75 µM
TGI (UO-31 renal): > 75 µM
TGI (XF 498 CNS): > 75 µM

Cc1nc2nnnn2c2c1C(=O)Nc1ccccc1N2
TGI (786-0 renal): > 100 µM
TGI (A549 NSCLC): > 100 µM
TGI (ACHN renal): > 100 µM
TGI (CCRF-CEM leukemia): > 100 µM
TGI (COLO 205 colon): > 100 µM
TGI (DLD-1 colon): > 100 µM
TGI (DMS 114 small cell lung): > 100 µM
TGI (DMS 273 small cell lung): > 100 µM
TGI (EKVX NSCLC): > 100 µM
TGI (HCC-2998 colon): > 100 µM
TGI (HCT-116 colon): > 100 µM
TGI (HL-60(TB) leukemia): > 100 µM
TGI (HOP-18 NSCLC): > 100 µM
TGI (HOP-62 NSCLC): > 100 µM
TGI (HOP-92 NSCLC): > 100 µM
TGI (HT29 colon): > 100 µM
TGI (IGROV1 ovarian): > 100 µM
TGI (K-562 leukemia): > 100 µM
TGI (KM12 colon): > 100 µM
TGI (KM20L2 colon): > 100 µM
TGI (LOX IMVI melanoma): > 100 µM
TGI (LXFL 529 NSCLC): > 100 µM
TGI (M14 melanoma): > 100 µM
TGI (M19-MEL melanoma): > 100 µM
TGI (MALME-3M melanoma): > 100 µM
TGI (MOLT-4 leukemia): > 100 µM
TGI (NCI-H226 lung): > 100 µM
TGI (NCI-H23 lung): > 100 µM
TGI (NCI-H460 lung): > 100 µM
TGI (NCI-H522 lung): > 100 µM
TGI (OVCAR-3 ovarian): > 100 µM
TGI (OVCAR-8 ovarian): > 100 µM
TGI (RPMI-8226 leukemia): > 100 µM
TGI (RXF 393 renal): > 100 µM
TGI (SF-268 CNS): > 100 µM
TGI (SF-295 CNS): > 100 µM
TGI (SF-539 CNS): > 100 µM
TGI (SK-MEL-2 melanoma): > 100 µM
TGI (SK-MEL-28 melanoma): > 100 µM
TGI (SK-OV-3 ovarian): > 100 µM
TGI (SN12C renal): > 100 µM
TGI (SNB-19 CNS): > 100 µM
TGI (SNB-75 CNS): > 100 µM
TGI (SNB-78 CNS): > 100 µM
TGI (SR leukemia): > 100 µM
TGI (SW-620 colon): > 100 µM
TGI (TK-10 renal): > 100 µM
TGI (U251 CNS): > 100 µM
TGI (UACC-257 melanoma): > 100 µM
TGI (UACC-62 melanoma): > 100 µM
TGI (UO-31 renal): > 100 µM
TGI (XF 498 CNS): > 100 µM
